Common to all, as to assay type: biochemical
The target of one assay is protein kinase C. Nature of the assay: enzyme assay of protein kinase C. To be noted: read-out: 50% inhibition at a concentration of, enzyme assay of protein kinase C.
The next assay has as its target A-kinase (Homo sapiens, UniProt P17612). Nature of the assay: inhibition of the A-kinase. Particulars: read-out: IC values of the inhibition of the A-kinase.
For the next assay, the target named is T1, G-kinase (Homo sapiens, UniProt Q13976).
T1 sequence (Q13976 1-671): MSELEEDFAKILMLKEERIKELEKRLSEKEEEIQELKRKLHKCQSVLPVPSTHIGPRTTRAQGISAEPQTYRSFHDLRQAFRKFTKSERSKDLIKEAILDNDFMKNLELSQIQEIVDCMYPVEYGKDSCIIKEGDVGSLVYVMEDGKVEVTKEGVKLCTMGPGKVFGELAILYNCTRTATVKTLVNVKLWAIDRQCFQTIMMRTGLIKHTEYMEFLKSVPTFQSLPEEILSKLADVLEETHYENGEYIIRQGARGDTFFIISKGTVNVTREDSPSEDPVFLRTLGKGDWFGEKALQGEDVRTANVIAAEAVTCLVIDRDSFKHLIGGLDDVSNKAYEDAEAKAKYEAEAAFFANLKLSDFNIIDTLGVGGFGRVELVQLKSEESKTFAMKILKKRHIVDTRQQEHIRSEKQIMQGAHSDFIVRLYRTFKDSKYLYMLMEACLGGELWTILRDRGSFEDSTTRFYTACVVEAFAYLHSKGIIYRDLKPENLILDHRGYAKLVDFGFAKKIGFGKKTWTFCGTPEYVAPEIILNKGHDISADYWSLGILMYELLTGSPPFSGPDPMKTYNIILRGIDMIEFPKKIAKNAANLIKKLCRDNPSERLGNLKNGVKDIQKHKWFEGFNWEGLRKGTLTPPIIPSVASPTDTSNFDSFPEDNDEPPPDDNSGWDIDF
Briefly: inhibition of the G-kinase. To be noted: read-out: IC values of the inhibition of the G-kinase.

The next assay has as its target MLC-kinase. Briefly: inhibition of the MLC-kinase. To be noted: read-out: IC values of the inhibition of the MLC-kinase.

Regarding `Cn1cc(C2=C(c3c[nH]c4ccccc34)C(=O)NC2=O)c2ccccc21` [Example 1, 2-(1H-Indol-3-yl)-3-(1-methyl-1H-indol-3-yl)maleinimide], the IC50 turned out to be 0.14 µM at protein kinase C, 77 µM on A-kinase, 15 µM at G-kinase and 4.5 µM at MLC-kinase.

The values above are taken from patent US5380746A, “Bis-(1H-indol-3-YL)-maleinimide derivatives, processes for the preparation thereof and pharmaceutical compositions containing them” (Goedecke Aktiengesellschaft, priority 1989, dated 1995).
